The values below are quoted from earlier work in patent publication US20080044496A1, “ARTHRITIS PHYTO-NUTRACEUTICAL SYNERGISTIC COMPOSITION” (priority 2006, published 2008).

The test system of the data set is human rheumatoid arthritis synoviocytes.

Turning to `C[C@@H]1CC[C@@]2(OC1)O[C@H]1C[C@H]3[C@@H]4CC=C5C[C@@H](O)CC[C@]5(C)[C@H]4CC[C@]3(C)[C@H]1[C@@H]2C` [diosgenine], the apoptosis result is “induces apoptosis”.
